Molecular target: T1, GCN2 (Homo sapiens, UniProt Q9P2K8)
T1 construct: gene EIF2AK4; recombinant human GCN2, N-terminal twin StrepII tag, expressed in Sf9 cells
Experiment: ADP-Glo kinase assay with purified GCN2 (biphasic: activation EC50 […], inhibition IC50 […]); supported by thermal unfolding (-2.[…] °C shift) and in vitro autophosphorylation
Assay type: biochemical

T1 sequence (Q9P2K8 whole entry): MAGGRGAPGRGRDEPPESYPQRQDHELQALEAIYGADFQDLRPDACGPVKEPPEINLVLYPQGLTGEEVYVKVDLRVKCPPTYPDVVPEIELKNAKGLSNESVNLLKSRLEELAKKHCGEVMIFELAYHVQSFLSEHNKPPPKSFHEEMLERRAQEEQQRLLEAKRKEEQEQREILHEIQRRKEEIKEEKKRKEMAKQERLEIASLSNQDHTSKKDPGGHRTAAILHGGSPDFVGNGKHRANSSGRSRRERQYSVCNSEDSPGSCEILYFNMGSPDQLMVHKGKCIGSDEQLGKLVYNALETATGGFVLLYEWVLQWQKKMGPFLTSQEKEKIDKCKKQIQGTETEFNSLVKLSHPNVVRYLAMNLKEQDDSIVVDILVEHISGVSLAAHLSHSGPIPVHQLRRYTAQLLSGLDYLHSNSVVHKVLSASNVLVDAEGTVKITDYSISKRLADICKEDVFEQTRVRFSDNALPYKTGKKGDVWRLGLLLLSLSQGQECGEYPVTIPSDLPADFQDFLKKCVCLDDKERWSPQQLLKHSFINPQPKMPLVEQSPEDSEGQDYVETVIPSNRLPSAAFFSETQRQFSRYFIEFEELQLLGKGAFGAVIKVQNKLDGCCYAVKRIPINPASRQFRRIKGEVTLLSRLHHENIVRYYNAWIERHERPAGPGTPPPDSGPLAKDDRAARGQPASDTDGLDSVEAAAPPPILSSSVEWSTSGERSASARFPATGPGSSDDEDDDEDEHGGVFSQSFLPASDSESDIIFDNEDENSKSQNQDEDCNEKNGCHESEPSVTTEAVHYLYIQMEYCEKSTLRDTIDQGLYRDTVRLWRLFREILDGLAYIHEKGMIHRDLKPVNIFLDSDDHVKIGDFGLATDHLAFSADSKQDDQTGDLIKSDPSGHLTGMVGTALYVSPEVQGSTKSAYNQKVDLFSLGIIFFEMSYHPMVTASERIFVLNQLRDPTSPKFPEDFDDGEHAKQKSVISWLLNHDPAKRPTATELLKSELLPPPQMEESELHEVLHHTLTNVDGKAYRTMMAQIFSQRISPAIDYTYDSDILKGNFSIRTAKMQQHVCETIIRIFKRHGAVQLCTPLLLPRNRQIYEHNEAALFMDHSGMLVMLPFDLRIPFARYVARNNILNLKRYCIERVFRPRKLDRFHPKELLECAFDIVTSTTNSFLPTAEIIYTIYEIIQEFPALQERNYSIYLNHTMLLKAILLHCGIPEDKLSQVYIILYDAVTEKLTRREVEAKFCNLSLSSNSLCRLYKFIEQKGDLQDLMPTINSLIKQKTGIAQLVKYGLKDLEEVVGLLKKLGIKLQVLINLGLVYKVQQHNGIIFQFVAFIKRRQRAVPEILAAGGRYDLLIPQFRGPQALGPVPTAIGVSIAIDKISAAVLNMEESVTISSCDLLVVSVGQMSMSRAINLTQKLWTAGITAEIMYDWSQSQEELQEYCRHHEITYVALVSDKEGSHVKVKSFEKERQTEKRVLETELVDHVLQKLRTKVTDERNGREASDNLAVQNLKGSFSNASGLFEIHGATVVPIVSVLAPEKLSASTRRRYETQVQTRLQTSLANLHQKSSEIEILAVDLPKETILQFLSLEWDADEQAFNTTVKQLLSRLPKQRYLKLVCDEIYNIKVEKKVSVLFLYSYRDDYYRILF

EC50: 0.016 µM
SMILES: C=CCn1c(=O)c2cnc(Nc3ccc(N4CCN(C)CC4)cc3)nc2n1-c1cccc(C(C)(C)O)n1 [AZD1775]
